# Test results as given in patent US11571426B2, “Compositions for preventing or treating lupus” (CHONG KUN DANG PHARMACEUTICAL CORP., priority 2017, dated 2023).
# Marks after values point to notes of the source that are not given here.
# How the values were obtained:
# [1] = tested on: NZB/W F1 female mice; experiment: Proteinuria and UP/C in SLE model mouse; format: in vivo; settings: positive control 5 mg/kg/day; 42 weeks old
# Experimental: (§1) 80 NZB/W F1 female mice (four weeks old) were purchased from Jackson Laboratory and maintained in an SPF breeding room with five mice per cage. Their weight and urine protein were measured at 24 weeks after birth (right before administration), and then all the animals except those having too much urine protein were divided into groups as shown in a table 2 below such that the urine protein and weight might be evenly distributed among the groups.
# (§2) Then, the mice were administered as described in the table 2 once a day for about 19 weeks from 24 weeks after birth to 42 weeks after birth.
# (§3) The fresh urine of mice was collected before and after administration every two weeks, while blood collection was performed before and after administration every four weeks. The serum was prepared by centrifugation of the collected blood and then kept at −70° C.
# A urine creatinine concentration was obtained by diluting the urine 100-fold, then measuring the concentration thereof by means of a serum chemistry analyzer (Dri-CHEM 3000 colorimetric analyzer, Fujifilm), and then calibrating the measured value using a dilution factor.
# [2] = tested on: NZB/W F1 female mice; experiment: Serum cytokine level (Milliplex MAP kit) in SLE disease mouse; format: in vivo; settings: group P, 5 mg/kg/day i.p., n = 13
# Experimental: as §1, §2, §3
# To analyze an effect of the inventive pharmaceutical composition on a change in a serum cytokine level in the SLE disease mouse, a level of GM-CSF, IFN-γ, IL-1α, IL-1β, IL-10, IL-12(p70), IL-15, IL-17a, IL-2, IL-4, IL-6, TNF-α, […], IL-22 and IL-23 in serum was measured by means of a Mouse cytokine Milliplex MAP kit (Merck Millipore), wherein the results thereof were shown in a table 3.
# Data obtained from groups were compared using a Kruskal-Wallis (†p<0.05) *p<0.05 versus C group (Mann-Whitney U-test)
# [3] = tested on: NZB/W F1 female mice; experiment: Serum chemistry after long-term administration; format: in vivo, mouse; settings: group P, 5 mg/kg/day i.p.; serum at autopsy
# Experimental: as §1, §2
# Data obtained from groups were compared using a Kruskal-Wallis (†p<0.05), *p<0.05 versus C group (Mann-Whitney U-test), ALT: alanine aminotransferase, AST: aspartate aminotransferase, ALP: alkaline phosphatase, TBIL: total bilirubin, TCHOL: total cholesterol, TG: triglyceride, TP: total protein, CPK: creatine phosphokinase)
# [4] = tested on: NZB/W F1 female mice; experiment: T cell populations in spleen (FACS) in SLE disease mouse; format: in vivo; settings: positive control 5 mg/kg/day; vs negative control
# [5] = tested on: TNFα secretion in LPS-stimulated human monocyte cell lines (THP-1); experiment: Suppression of TNFα secretion in LPS-stimulated THP-1 (ELISA); format: cell-based
# Experimental: To identify the efficacy of the inventive compounds on suppressing a TNFα secretion in immune responses, suppression of TNFα production, which was achieved by a treatment with compounds 374, 461, 500, 530 and 532 according to the present invention in LPS-stimulated human monocyte cell lines (THP-1), was quantified by means of an enzyme immuno-assay (ELISA).
# Specifically, the THP-1 cell lines (ATCC) were cultured in an RPMI-1640 medium comprising 10% FBS. The cell lines were divided into a 24 well plate at a ratio of 1×10^5 cells per well, then treated with 100 ng/mL PMA (phorbol 12-myristate 13-acetate) for 24 hours, and then differentiated into macrophage. Then, the culture medium was replaced with a new one, then treated with a test drug for 24 hours, and then treated again with 10 ng/mL LPS (E. Coli, O55:B5) for four hours for stimulation. After that, supernatant was taken and used to measure the amount of TNFα secreted from the cells by means of a Human TNFα Instant ELISA kit (eBioscience, BMS223INST) according to a protocol provided by a manufacturer.
# [6] = tested on: CTLA4 (cytotoxic T-lymphocyte-associated protein 4) in the regulatory T cells; experiment: CTLA4 expression in regulatory T cells (flow cytometry); format: cell-based, mouse; settings: 1000 nM
# Experimental: To identify if the compounds according to the present invention regulate a function of regulatory T cells in immune responses, compounds 255, 280, 374, 416 and 476 were treated, and then an expression level of an immune checkpoint receptor CTLA4 (cytotoxic T-lymphocyte-associated protein 4) in the regulatory T cells was measured by means of flow cytometry.
# Specifically, a six-week old C57BL6 male mice were supplied from Central Lab Animal Inc., then acclimated for one week, and then used in an experiment. A spleen was isolated from the mouse, and then treated with collagenase D (Roche, 11088866001), such that splenocytes were isolated therefrom. CD4+CD25− T cells were isolated by means of a CD4+CD25+ regulatory T cell isolation kit (Miltenyi Biotec, 130-091-041), and then CD4+CD25− T cells (at a ratio of 5×10^5 cells/well) were treated with an anti-CD3c/anti-CD28 mAb bead (T cell activation/expansion kit, Miltenyi Biotec, 130-093627) and a mouse recombinant TGF-β2 for six days, such that they were differentiated into iTreg. A test drug was simultaneously treated for six days, during which the cells were differentiated into iTreg. After that, the cells were incubated by means of anti-CD^4/anti-CD25 mAb (eBioscience, 25-0042-82, 17-0251-82) at 4° C. for 20 minutes, and then labeling was performed. […]
# [7] = on increasing concentration from 100 nM to 300 nM
smiles,measurement,setting,value
"C[C@H]1C[C@@H]2[C@H]([C@@H](O)C[C@@]3(C)[C@H]2CC[C@]3(O)C(=O)CO)[C@@]2(C)C=CC(=O)C=C12 [Methylprednisolone, reference compound]",incidence rate of severe proteinuria of 300 mg/dl or more,[1],20%
same,IFN-γ in serum,[2],0.07 ± 0.07 pg/mL
same,IL22 in serum,[2],17.68 ± 4.49 pg/mL
same,IL-1α in serum,[2],666.21 ± 146.22 pg/mL
same,IL-1β in serum,[2],0.65 ± 0.65 pg/mL
same,IL-2 in serum,[2],0.09 ± 0.09 pg/mL
same,IL-4 in serum,[2],1.49 ± 0.06 pg/mL
same,IL-6 in serum,[2],3.36 ± 0.92 pg/mL
same,IL-23 in serum,[2],22.31 ± 17.13 pg/mL
same,TGF-β in serum,[2],66007.78 ± 5207.83 pg/mL
same,ALP,[3],207.45 ± 7.21 U/I
same,ALT,[3],24.09 ± 2.00* U/I
same,AST,[3],52.09 ± 4.25* U/I
same,Albumin,[3],2.52 ± 0.07* g/dl
same,Ca,[3],9.35 ± 0.16 mg/dL
same,Glucose,[3],189.27 ± 12.23 mg/dL
same,TBIL,[3],0.41 ± 0.09 mg/dL
same,TCHOL,[3],162.09 ± 8.97 mg/dL
same,TG,[3],251.82 ± 29.19 mg/dL
same,TP,[3],5.42 ± 0.11* g/dl
same,decrease of ratio of CD138+ cells,[4],16.3%
"O=C(NO)c1ccc(CN(C(=O)N2CCOCC2)c2cccc(C(F)(F)F)c2)c(F)c1 [Compound 532, N-(2-fluoro-4-(hydroxycarbamoyl)benzyl)-N-(3-(trifluoromethyl)phenyl)morpholine-4-carboxamide]",level of TNFα secretion,[5]; [7],drastically decreased
"O=C(NO)c1ccc(CN(C(=O)N2CCOCC2)c2cccc(F)c2)cc1 [Compound 530, N-(3-fluorophenyl)-N-(4-(hydroxycarbamoyl)benzyl)morpholine-4-carboxamide]",level of TNFα secretion,[5]; [7],drastically decreased
"O=C(NO)c1ccc(CN(C(=O)N2CCOCC2)c2cccc(CF)c2)cc1 [Compound 500, N-(3-(fluoromethyl)phenyl)-N-(4-(hydroxycarbamoyl)benzyl)morpholine-4-carboxamide]",level of TNFα secretion,[5]; at both 100 nM and 300 nM,remarkably decreased
"O=C(NO)c1ccc(CN(C(=O)N2CCOCC2)c2cccc(Br)c2)cc1 [Compound 255, N-(3-bromophenyl)-N-(4-(hydroxycarbamoyl)benzyl)morpholine-4-carboxamide]",cytotoxicity,[6],severe cytotoxicity
"CCN1CCN(C(=O)N(Cc2ccc(C(=O)NO)cc2)c2cccc(C(F)(F)F)c2)CC1 [Compound 461, 4-ethyl-N-(4-(hydroxycarbamoyl)benzyl)-N-(3-(trifluoromethyl)phenyl)piperazine-1-carboxamide]",level of TNFα secretion,[5]; at both 100 nM and 300 nM,remarkably decreased
